Test results reported in US20100178299A1, “METHODS AND COMPOSITIONS FOR IMPROVING IMMUNE RESPONSES” (Northeastern University, priority 2007, published 2010).
“Also recorded” adds a separate entry of the source.

Tests used:
[1] = test system: MCA 205 fibrosarcoma lung metastases; assay: Adoptive immunotherapy of MCA 205 fibrosarcoma lung metastases; assay type: in vivo, mice; settings: KW6002 20 mg/kg daily i.p. with adoptive transfer of 12.5×10^6 anti-tumor T cells; day 21
Experimental: Here, we observed the effect of adoptively transferred anti-tumor T cells on the weakly immunogenic MCA 205 fibrosarcoma lung metastases if treatment included A2AR antagonist KW6002. It is shown that treatment with this long-lived A2AR antagonist may strongly enhance the efficacy of adoptive immunotherapy (FIG. 7).
CTLs were prepared from tumor draining lymph nodes isolated from lymph nodes 12 days after s.c. inoculation with 1.5×105 MCA205 fibrosarcoma. After 2 days anti-CD3 activation and additional 3 days IL-2 expansion, these T cells were injected into mice with 10 days established pulmonary metastases (3×10^5 MCA205 cells). After the adoptive transfer, the mice received daily i.p. injection of 20 mg/kg of KW6002. The pulmonary metastases were examined by day 21 after tumor inoculation. (Please note that tumors appear as white nodules upon the ink injected lungs.)

[2] = test system: B16 melanoma; assay: B16 melanoma growth and survival in mice given GM-CSF-transfected B16 tumor vaccine; assay type: in vivo, C57BL/6 mice; settings: for survival of mice: log-rank
Source text: Tumor melanoma cells are transfected with GM-CSF then irradiated or treated with anti-proliferative drug, mitomycin C, in order to prevent the proliferation of these tumor vaccine cells in a patient to be injected with this vaccine. […] Hodi F S, Dranoff G. Combinatorial cancer immunotherapy. Adv Immunol. 2006; 90:341-68
B16 melanoma (1×10^6 cells, s.c.) were inoculated to syngeneic C57BL/6 mice. All the mice received tumor vaccination, GM-CSF transfectant of B16 cells (1×10^6 cells, s.c.), for 3 times in every week starting from day 2. On the same day, treatment with KW6002 (2 mg/kg, daily s.c. injection) and/or 60% oxygen was started until the end of the experiment. B16 tumor growth was retarded by treatment with 60% oxygen and combined treatment with KW6002 (left). Perpendicular tumor diameters were measured and tumor volumes were calculated according to the formula a2×b×0.52, where a is the smaller and b is the larger tumor diameter. […] The mice were euthanized when tumor reached 2.0 cm in diameter or became ulcerated. […] The difference was statistically significant with control vs 60% O2 (p=0.033) and control vs 60% O2+KW (p=0.001). The statistics was calculated by log-rank test.

[3] = test system: TNP-specific IgM; assay: TNP-KLH/CFA immunization with IFA booster, indirect ELISA of TNP-specific IgM (Example 2); assay type: in vivo, C57B1/6 mice
[4] = test system: RMA T lymphoma; assay: RMA T lymphoma growth, rejection and survival in mice treated with caffeine and/or 60% oxygen; assay type: in vivo, C57BL/6 mice
[5] = target: T1, A2AR (Homo sapiens, UniProt P29274); assay: Control assay of ex vivo serum from caffeine-treated mice on adenosine→A2AR-induced cAMP accumulation in cells; assay type: cell-based; settings: ex vivo serum from mice given caffeine 0.1% w/v in drinking water
T1 construct: host or cells: cells, not specified
T1 sequence (P29274 whole entry): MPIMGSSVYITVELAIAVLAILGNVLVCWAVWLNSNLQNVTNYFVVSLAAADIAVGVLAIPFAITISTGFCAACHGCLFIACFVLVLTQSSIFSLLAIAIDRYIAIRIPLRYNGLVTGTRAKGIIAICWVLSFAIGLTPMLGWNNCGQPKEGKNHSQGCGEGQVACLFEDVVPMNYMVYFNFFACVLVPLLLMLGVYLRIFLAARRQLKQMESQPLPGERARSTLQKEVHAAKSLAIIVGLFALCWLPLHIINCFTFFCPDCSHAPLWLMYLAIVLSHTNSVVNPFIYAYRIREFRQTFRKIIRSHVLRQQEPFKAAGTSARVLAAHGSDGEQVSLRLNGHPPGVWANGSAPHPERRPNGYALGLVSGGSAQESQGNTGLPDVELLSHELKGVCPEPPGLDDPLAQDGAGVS

[6] = caffeine alone in drinking water (0.1% w/v), FIG. 2

With CCn1c(=O)c2c(nc(/C=C/c3ccc(OC)c(OC)c3)n2C)n(CC)c1=O [KW6002, (E)-8-(3,4-dimethoxystyryl)-1,3-diethyl-7-methylxanthine] the “lung tumor nodules (pulmonary metastases)” value [1] was “most of the tumor nodules were eliminated”, the B16 tumor growth ([2]; KW6002 2 mg/kg daily s.c. combined with 60% oxygen, n=8, 2 mg/kg) was “can significantly retard tumor growth; also recorded: retarded” and the survival of mice ([2]; KW6002 2 mg/kg daily s.c. combined with 60% oxygen, p=0.001 vs control) was “prolonged survival of mice”.
Cn1c(=O)c2c(ncn2C)n(C)c1=O [caffeine, 1,3,7-trimethylxanthine] was tested, and the “effectiveness of immunization (TNP-specific IgM)” value ([3]; caffeine in drinking water added to 60% oxygen versus 60% oxygen alone, FIG. 4B) was “further improved effectiveness of immunization”, the RMA tumor growth [4, 6] was “delayed tumor growth in mice” and the survival [4, 6] was “no significant improvement of survival”. The “rejection of RMA T lymphoma” value ([4]; combined treatment with caffeine and high (60%) oxygen atmosphere) was “significantly improved spontaneous rejection of RMA T lymphoma; also recorded: dramatically improving tumor rejection and survival; also recorded: significantly improved T cell-mediated rejection of RMA T lymphoma”, the survival of mice ([4]; low dose RMA 2×10^5 cells s.c., combined caffeine and 60% oxygen, about 30% of control mice survived) was “significantly improved survival of mice” and the “in vivo levels of caffeine in serum versus adenosine→A2AR-induced cAMP accumulation” value [5] was “sufficiently high to prevent (antagonize) adenosine→A2AR-induced cAMP accumulation in cells”.
With oxygen the “TNP-specific IgM production” value ([3]; 60% oxygen after vaccination versus normal oxygen, FIG. 4A) was “produced more IgM than control immunized mice”, the B16 tumor growth ([2]; 60% oxygen alone, with tumor vaccine, n=8) was “retarded” and the survival of mice ([2]; 60% oxygen alone, with tumor vaccine, p=0.033 vs control) was “prolonged survival of mice”. The tumor rejection ([4]; high dose RMA 3×10^5 cells s.c., 60% oxygen alone, n=8, most of the mice) was “did not reject the tumor; also recorded: couldn't reject the tumor”.
